The source made the active and inactive calls. The calls are words filed in the database; no cut-off is given here.
What was measured:
[1] = target: T1, Adenosine receptor A2b (Homo sapiens) (UniProt P29275); test: Displacement of [3H]DPCPX from human adenosine A2B receptor expressed in HEK293 cells at 10 uM after 30 mins by liquid scintillation counting; format: cell-based
T1 sequence (whole entry): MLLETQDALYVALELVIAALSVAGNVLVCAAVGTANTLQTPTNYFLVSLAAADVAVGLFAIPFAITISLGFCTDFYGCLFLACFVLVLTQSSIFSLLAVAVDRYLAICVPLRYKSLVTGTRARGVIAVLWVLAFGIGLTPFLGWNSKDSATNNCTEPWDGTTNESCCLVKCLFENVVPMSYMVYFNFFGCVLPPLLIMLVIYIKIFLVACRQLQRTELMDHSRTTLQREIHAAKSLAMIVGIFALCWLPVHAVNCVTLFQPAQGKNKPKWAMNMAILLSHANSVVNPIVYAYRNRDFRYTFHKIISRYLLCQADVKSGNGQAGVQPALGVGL

[2] = target: T2, Adenosine receptor A3 (Homo sapiens) (UniProt P0DMS8); test: Displacement of [3H]NECA from human adenosine A3 receptor expressed in HeLa cells at 10 uM after 30 mins by liquid scintillation counting; format: cell-based
T2 sequence (whole entry): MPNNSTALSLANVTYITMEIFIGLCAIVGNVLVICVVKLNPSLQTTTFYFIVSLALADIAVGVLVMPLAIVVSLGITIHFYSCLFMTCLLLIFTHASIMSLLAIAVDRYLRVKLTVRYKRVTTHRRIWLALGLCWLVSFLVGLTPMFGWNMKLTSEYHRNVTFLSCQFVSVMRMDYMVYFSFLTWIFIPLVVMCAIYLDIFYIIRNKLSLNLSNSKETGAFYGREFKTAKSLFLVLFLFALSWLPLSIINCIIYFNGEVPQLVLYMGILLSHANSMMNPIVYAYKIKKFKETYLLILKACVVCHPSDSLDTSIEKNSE

[3] = target: Adenosine receptor A2a (Homo sapiens) (UniProt P29274); test: Displacement of [3H][…] from human adenosine A2A receptor expressed in HeLa cells at 10 uM after 30 mins by liquid scintillation counting; format: cell-based
Adenosine receptor A2a (Homo sapiens), sequence (P29274 whole entry): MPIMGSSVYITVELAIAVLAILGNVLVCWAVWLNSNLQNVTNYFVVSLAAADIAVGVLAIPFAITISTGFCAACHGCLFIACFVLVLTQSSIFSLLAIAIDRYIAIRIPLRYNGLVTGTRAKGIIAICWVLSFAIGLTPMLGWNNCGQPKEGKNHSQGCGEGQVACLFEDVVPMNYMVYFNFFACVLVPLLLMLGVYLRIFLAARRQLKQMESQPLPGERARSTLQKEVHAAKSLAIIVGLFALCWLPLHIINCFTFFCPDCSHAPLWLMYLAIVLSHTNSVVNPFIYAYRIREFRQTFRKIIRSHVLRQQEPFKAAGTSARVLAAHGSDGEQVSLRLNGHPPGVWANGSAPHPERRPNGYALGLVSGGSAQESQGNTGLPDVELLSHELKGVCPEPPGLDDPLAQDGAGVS

[4] = target: T3, Adenosine receptor A1 (Homo sapiens) (UniProt P30542); test: Displacement of [3H]DPCPX from human adenosine A1 receptor expressed in CHO cells at 10 uM after 60 mins by liquid scintillation counting; format: cell-based
T3 sequence (whole entry): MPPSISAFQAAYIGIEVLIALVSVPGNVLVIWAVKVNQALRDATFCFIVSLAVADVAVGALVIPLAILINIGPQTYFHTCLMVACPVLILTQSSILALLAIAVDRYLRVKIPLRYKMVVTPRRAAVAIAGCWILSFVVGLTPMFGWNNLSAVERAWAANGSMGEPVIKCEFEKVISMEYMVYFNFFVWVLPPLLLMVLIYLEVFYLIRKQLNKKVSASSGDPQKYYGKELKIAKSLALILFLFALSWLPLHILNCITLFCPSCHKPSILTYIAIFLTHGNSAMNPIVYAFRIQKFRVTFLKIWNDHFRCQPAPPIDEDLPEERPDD

[5] = target: T4, Adenosine receptor A2b (Homo sapiens, UniProt P29275); test: Displacement of [3H]DPCPX from human adenosine A2B receptor expressed in HEK293 cells after 30 mins by liquid scintillation counting; format: cell-based
T4 sequence (P29275 whole entry): T1 sequence (whole entry)

[6] = species: Homo sapiens; test: Selectivity ratio for human A2B adenosine receptor over human A3 adenosine receptor

Row | Compound | Activity [1] | Activity [2] | Activity [3] | Activity [4] | Ki [5] [µM] | Selectivity ratio [6]
1 | O=C(Nc1ccccc1)c1cc(=O)c2ccccc2o1 | Active | Active | Active | Active | – | –
2 | O=C(Nc1ccc(O)cc1)c1cc(=O)c2ccccc2o1 | Active | Active | Active | Active | – | –
3 | O=C(O)c1cc(=O)c2ccccc2o1 | – | Active | – | Active | – | –
4 | COc1ccc(NC(=O)c2coc3ccccc3c2=O)cc1O | > 50% | – | – | – | 5.82 | –
5 | O=C(Nc1ccc(O)c(O)c1)c1cc(=O)c2ccccc2o1 | Active | Active | Active | Active | – | –
6 | O=C(Nc1ccccc1)c1coc2ccccc2c1=O | > 50% | – | 3% | 3% | 8.51 | 2
7 | O=C(Nc1ccc(O)c(O)c1)c1coc2ccccc2c1=O | > 50% | – | – | – | 1.35 | –
8 | O=C(Nc1ccc(O)cc1)c1coc2ccccc2c1=O | > 50% | – | – | – | 2.89 | –

The next lines start with the values.

Row | Activity [1] | Activity [2] | Activity [3] | Activity [4] | Ki [5] [µM] | Selectivity ratio [6] | Compound
9 | Active | Active | Active | Active | – | – | COc1ccc(NC(=O)c2cc(=O)c3ccccc3o2)cc1OC
10 | > 50% | – | – | – | 6.39 | – | COc1ccc(NC(=O)c2coc3ccccc3c2=O)cc1OC
11 | Active | Active | Active | Active | – | – | COc1ccc(NC(=O)c2cc(=O)c3ccccc3o2)cc1O
